Legend:
Rattus norvegicus [1] = assay: Effect on heart rate in spontaneously hypertensive rat assessed as heart rate level at 80 mg/kg, po measured after 6 hrs by tail-cuff method (reference value: 411.12 +/- 19.1 bpm); format: ADME, organism-based; conditions: in vivo
Rattus norvegicus [2] = assay: Antihypertensive activity in spontaneously hypertensive rat assessed as diastolic arterial pressure at 80 mg/kg, po measured after 6 hrs by tail-cuff method (reference value: 137.54 +/- 9.2 mmHg); format: functional
Rattus norvegicus [3] = assay: Antihypertensive activity in spontaneously hypertensive rat assessed as mean arterial pressure at 80 mg/kg, po measured after 6 hrs by tail-cuff method (reference value: 151.48 +/- 12.24 mmHg); format: functional
Thoracic aorta [4] = assay: Vasodilatory activity in Sprague-Dawley rat thoracic aorta assessed as inhibition of noradrenaline-induced contractions at 10 uM relative to untreated control; format: functional
Thoracic aorta [5] = assay: Vasodilatory activity in Sprague-Dawley rat thoracic aorta assessed as inhibition of noradrenaline-induced contractions at 100 uM relative to untreated control; format: functional
[6] = molecular target: T1, Alpha-1A adrenergic receptor (Rattus norvegicus, UniProt P43140); assay: Antagonist activity at alpha-1a adrenergic receptor in SPF rat prostatic vas deferens assessed as inhibition of noradrenaline-induced contractions; conditions: read-out: pA2 (converted)
T1 sequence (P43140 whole entry): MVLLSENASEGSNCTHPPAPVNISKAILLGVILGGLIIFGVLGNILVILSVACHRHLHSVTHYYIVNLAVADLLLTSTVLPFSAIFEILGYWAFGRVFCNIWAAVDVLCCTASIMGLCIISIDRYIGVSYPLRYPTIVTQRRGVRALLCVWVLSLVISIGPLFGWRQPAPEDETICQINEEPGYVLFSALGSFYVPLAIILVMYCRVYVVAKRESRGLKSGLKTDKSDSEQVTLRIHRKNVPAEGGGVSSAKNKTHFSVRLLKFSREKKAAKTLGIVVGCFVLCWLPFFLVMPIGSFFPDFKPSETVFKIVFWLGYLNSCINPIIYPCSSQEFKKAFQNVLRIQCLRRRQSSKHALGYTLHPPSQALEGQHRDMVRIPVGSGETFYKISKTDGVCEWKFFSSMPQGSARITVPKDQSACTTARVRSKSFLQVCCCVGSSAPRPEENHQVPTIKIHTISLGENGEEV

[7] = molecular target: T2, Alpha-1B adrenergic receptor (Rattus norvegicus, UniProt P15823); assay: Antagonist activity at alpha-1b adrenergic receptor in SPF rat spleen assessed as inhibition of noradrenaline-induced contractions; format: tissue-based; conditions: read-out: pA2 (converted)
T2 sequence (P15823 whole entry): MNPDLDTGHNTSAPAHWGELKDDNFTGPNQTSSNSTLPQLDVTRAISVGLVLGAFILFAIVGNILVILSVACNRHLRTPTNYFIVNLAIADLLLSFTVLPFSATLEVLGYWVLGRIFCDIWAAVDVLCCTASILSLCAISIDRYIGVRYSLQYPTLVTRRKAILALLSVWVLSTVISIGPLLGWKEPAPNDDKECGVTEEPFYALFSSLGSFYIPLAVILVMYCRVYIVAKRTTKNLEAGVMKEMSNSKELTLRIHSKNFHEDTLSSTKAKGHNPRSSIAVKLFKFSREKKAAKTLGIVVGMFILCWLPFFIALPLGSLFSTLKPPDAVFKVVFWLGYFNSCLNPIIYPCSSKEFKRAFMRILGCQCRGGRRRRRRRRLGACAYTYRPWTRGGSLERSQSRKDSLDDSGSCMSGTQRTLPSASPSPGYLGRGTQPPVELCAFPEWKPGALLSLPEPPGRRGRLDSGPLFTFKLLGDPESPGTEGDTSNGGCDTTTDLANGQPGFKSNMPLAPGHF

Rattus norvegicus [8] = organism: Rattus norvegicus; assay: Ratio of pA2 for alpha-1b adrenergic receptor in SPF rat spleen to pA2 for alpha-1a adrenergic receptor in SPF rat prostatic vas deferens; format: tissue-based
Rattus norvegicus [9] = organism: Rattus norvegicus; assay: Ratio of pA2 for alpha-1b adrenergic receptor in SPF rat spleen to pA2 for alpha-1D adrenergic receptor in SPF rat vas thoracic aorta
Rattus norvegicus [10] = assay: Antihypertensive activity in spontaneously hypertensive rat assessed as diastolic arterial pressure at 80 mg/kg, po measured after 0 hrs by tail-cuff method (reference value: 149.50 +/- 5.4 mmHg); format: functional
Rattus norvegicus [11] = assay: Effect on heart rate in spontaneously hypertensive rat assessed as heart rate level at 80 mg/kg, po measured after 0 hrs by tail-cuff method (reference value: 413.17 +/- 10.5 bpm); format: ADME, organism-based; conditions: in vivo
Rattus norvegicus [12] = assay: Antihypertensive activity in spontaneously hypertensive rat assessed as systolic arterial pressure at 80 mg/kg, po measured after 1 hr by tail-cuff method (reference value: 185.35 +/- 10.30 mmHg); format: functional
Rattus norvegicus [13] = assay: Antihypertensive activity in spontaneously hypertensive rat assessed as diastolic arterial pressure at 80 mg/kg, po measured after 1 hr by tail-cuff method (reference value: 147.33 +/- 9.8 mmHg); format: functional
Rattus norvegicus [14] = assay: Antihypertensive activity in spontaneously hypertensive rat assessed as systolic arterial pressure at 80 mg/kg, po measured after 2 hrs by tail-cuff method (reference value: 189.20 +/- 12.31 mmHg); format: functional
Rattus norvegicus [15] = assay: Antihypertensive activity in spontaneously hypertensive rat assessed as diastolic arterial pressure at 80 mg/kg, po measured after 2 hrs by tail-cuff method (reference value: 149.90 +/- 6 mmHg); format: functional
Rattus norvegicus [16] = assay: Antihypertensive activity in spontaneously hypertensive rat assessed as systolic arterial pressure at 80 mg/kg, po measured after 4 hrs by tail-cuff method (reference value: 178.66 +/- 17.18 mmHg); format: functional
Rattus norvegicus [17] = assay: Antihypertensive activity in spontaneously hypertensive rat assessed as diastolic arterial pressure at 80 mg/kg, po measured after 4 hrs by tail-cuff method (reference value: 136.12 +/- 5.3 mmHg); format: functional
Rattus norvegicus [18] = assay: Antihypertensive activity in spontaneously hypertensive rat assessed as mean arterial pressure at 80 mg/kg, po measured after 4 hrs by tail-cuff method (reference value: 150.30 +/- 9.26 mmHg); format: functional
Rattus norvegicus [19] = assay: Effect on heart rate in spontaneously hypertensive rat assessed as heart rate level at 80 mg/kg, po measured after 4 hrs by tail-cuff method (reference value: 410.80 +/- 17.4 bpm); format: ADME, organism-based; conditions: in vivo
Rattus norvegicus [20] = assay: Antihypertensive activity in spontaneously hypertensive rat assessed as systolic arterial pressure at 80 mg/kg, po measured after 6 hrs by tail-cuff method (reference value: 179.36 +/- 18.33 mmHg); format: functional
Rattus norvegicus [21] = assay: Antihypertensive activity in spontaneously hypertensive rat assessed as systolic arterial pressure at 80 mg/kg, po measured after 8 hrs by tail-cuff method (reference value: 179.42 +/- 13.70 mmHg); format: functional
Rattus norvegicus [22] = assay: Antihypertensive activity in spontaneously hypertensive rat assessed as mean arterial pressure at 80 mg/kg, po measured after 8 hrs by tail-cuff method (reference value: 153.55 +/- 11.43 mmHg); format: functional
Rattus norvegicus [23] = assay: Effect on heart rate in spontaneously hypertensive rat assessed as heart rate level at 80 mg/kg, po measured after 8 hrs by tail-cuff method (reference value: 412.77 +/- 11.3 bpm); format: ADME, organism-based; conditions: in vivo
Rattus norvegicus [24] = assay: Antihypertensive activity in spontaneously hypertensive rat assessed as reduction in mean arterial pressure at 80 mg/kg, po measured after 4 hrs by tail-cuff method; format: functional; design: scale not given: the % may be the effect or the level left

COc1cc2c(cc1OCC(O)CN1CCN(C(=O)C3CCCO3)CC1)C(=O)C(C)OC2 (centres undefined)
Activity (Rattus norvegicus [1]): 411.01 bpm | Activity (Rattus norvegicus [2]): 132.51 mmHg | Activity (Rattus norvegicus [3]): 140.83 mmHg | inhibition at 10 µM (Thoracic aorta [4]): 41.6% | inhibition at 100 µM (Thoracic aorta [5]): 64% | Kb [6]: 0.224 µM | Kb [7]: 0.0355 µM | Ratio (Rattus norvegicus [8]): 6.3 | Ratio (Rattus norvegicus [9]): 5.6 | Activity (Rattus norvegicus [10]): 156.23 mmHg | Activity (Rattus norvegicus [11]): 415.33 bpm | Activity (Rattus norvegicus [12]): 169.21 mmHg | Activity (Rattus norvegicus [13]): 144.15 mmHg | Activity (Rattus norvegicus [14]): 150.8 mmHg | Activity (Rattus norvegicus [15]): 131.86 mmHg | Activity (Rattus norvegicus [16]): 140.29 mmHg | Activity (Rattus norvegicus [17]): 120.54 mmHg | Activity (Rattus norvegicus [18]): 127.12 mmHg | Activity (Rattus norvegicus [19]): 405.15 bpm | Activity (Rattus norvegicus [20]): 157.46 mmHg | Activity (Rattus norvegicus [21]): 170.38 mmHg | Activity (Rattus norvegicus [22]): 151.39 mmHg | Activity (Rattus norvegicus [23]): 413.16 bpm | Activity (Rattus norvegicus [24]): 23.7%

— ChEMBL document CHEMBL4340549, “Design, synthesis and biological evaluation of isochroman-4-one hybrids bearing piperazine moiety as antihypertensive agent candidates” (Bioorg Med Chem, 2019)
